The record followed here is US8962608B2, “Cycloalkylnitrile pyrazole carboxamides as janus kinase inhibitors” (Merck Sharp & Dohme Corp., priority 2011, dated 2015).

The target of test [1] is JAK1 (recombinant purified GST-tagged catalytic domain) (Homo sapiens (Human), UniProt P23458). The test is described as follows: biochemical.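 Further: biochemical assay with HTRF read-out.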
Test [2] concerns the target JAK2 (recombinant purified GST-tagged catalytic domain) (Homo sapiens (Human), UniProt O60674). The test is described as follows: biochemical.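 Further: biochemical JAK kinase assay with HTRF detection.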

Sequence of JAK1 (recombinant purified GST-tagged catalytic domain) (P23458 875-1153): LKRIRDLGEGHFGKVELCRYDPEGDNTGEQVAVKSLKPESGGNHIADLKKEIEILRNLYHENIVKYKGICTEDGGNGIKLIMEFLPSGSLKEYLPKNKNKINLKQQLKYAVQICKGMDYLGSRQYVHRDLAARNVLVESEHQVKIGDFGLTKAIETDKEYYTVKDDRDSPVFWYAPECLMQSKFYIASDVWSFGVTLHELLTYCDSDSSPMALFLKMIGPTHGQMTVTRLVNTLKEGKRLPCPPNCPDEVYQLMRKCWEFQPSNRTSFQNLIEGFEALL
Sequence of JAK2 (recombinant purified GST-tagged catalytic domain) (O60674 849-1124): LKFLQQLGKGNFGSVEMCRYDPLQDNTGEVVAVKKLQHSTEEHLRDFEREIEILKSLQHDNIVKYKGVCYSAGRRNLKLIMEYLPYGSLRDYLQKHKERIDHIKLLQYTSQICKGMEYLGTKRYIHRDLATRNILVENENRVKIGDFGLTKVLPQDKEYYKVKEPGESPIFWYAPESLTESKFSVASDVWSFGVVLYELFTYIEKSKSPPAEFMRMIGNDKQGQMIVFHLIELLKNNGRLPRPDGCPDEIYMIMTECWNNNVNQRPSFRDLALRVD

Regarding `CC1CN([C@H]2CC[C@H](n3cc(C(N)=O)c(Nc4ccccc4)n3)[C@@H](C#N)C2)C1` (single isomer, unassigned) [Example 28-141, 1-[(1S,2S,4S or 1R,2R,4R)-2-cyano-4-(3-methylazetidin-1-yl)cyclohexyl]-3-(phenylamino)-1H-pyrazole-4-carboxamide], the IC50 stood at 1 nM in test [1] and 44 nM in test [2].

As to `N#C[C@H]1C[C@@H](N2CCC23COC3)CC[C@@H]1n1cc(C(N)=O)c(Nc2ccc(Cl)cc2)n1` (single isomer, unassigned) [Example 28-146, 3-[(4-chlorophenyl)amino]-1-[(1S,2S,4S or 1R,2R,4R)-2-cyano-4-(6-oxa-1-azaspiro[3.3]hept-1-yl)cyclohexyl]-1H-pyrazole-4-carboxamide], the IC50 in test [1] worked out at 1 nM; in test [2], 4 nM.

In the case of `N#C[C@H]1CCCCC1n1cc(C(N)=O)c(Nc2ccc3c(c2)CCC(=O)N3)n1` (mixture of isomers) [Example 17-11, 1-[(1S,2S and 1R,2R)-2-cyanocyclohexyl]-3-[(2-oxo-1,2,3,4-tetrahydroquinolin-6-yl)amino]-1H-pyrazole-4-carboxamide], the IC50 was 2 nM in test [1] and 8 nM in test [2].

Consider `N#C[C@H]1CC[C@@H](O)CC1n1cc(C(N)=O)c(Nc2ccccc2)n1` (mixture of isomers) [Example 2-13, 1-[(1S,2S,5R and 1R,2R,5S)-2-cyano-5-hydroxycyclohexyl]-3-(phenylamino)-1H-pyrazole-4-carboxamide], for which the concentration for half-maximal inhibition (IC50) in test [1] is 27 nM; in test [2] it was 185 nM.

As to `N#C[C@H]1C[C@@H](N[C@@H](C2CC2)C(F)(F)F)CC[C@@H]1n1cc(C(N)=O)c(Nc2ccc(C(F)(F)F)cc2)n1` (single isomer, unassigned) [Example 28-194, 1-[(1S,2S,4S or 1R,2R,4R)-2-cyano-4-{[(1S)-1-cyclopropyl-2,2,2-trifluoroethyl]amino}cyclo-hexyl]-3-{[4-(trifluoromethyl)phenyl]amino}-1H-pyrazole-4-carboxamide], the IC50 in test [1] worked out at 4 nM; in test [2], 152 nM.

With `N#C[C@H]1C[C@@H](N2CCC2)CC[C@@H]1n1cc(C(N)=O)c(Nc2ccc(OC(F)(F)F)cc2)n1` (single isomer, unassigned) [Example 28-58, 1-[(1S,2S,4S or 1R,2R,4R)-4-azetidin-1-yl-2-cyanocyclohexyl]-3-{[4-(trifluoromethoxy)phenyl]amino}-1H-pyrazole-4-carboxamide], the half-maximal inhibitory concentration (IC50) in test [1] amounted to 0.7 nM; in test [2], 23 nM.

As for `N#Cc1ccc(Nc2nn([C@H]3CCCC[C@@H]3C#N)cc2C(N)=O)cc1` (racemic) [Example 17-5, 1-[(1S,2S and 1R,2R)-2-cyanocyclohexyl]-3-[(4-cyanophenyl)amino]-1H-pyrazole-4-carboxamide], the IC50 in test [1] amounted to 1 nM; in test [2], 9 nM.

Regarding `CN(C)S(=O)(=O)CCNC1CC[C@H](n2cc(C(N)=O)c(Nc3ccc(S(=O)(=O)C(F)(F)F)cc3)n2)[C@@H](C#N)C1` (single isomer, unassigned) [Example 28-154, 1-[(1S,2S or 1R,2R)-2-cyano-4-{[2-(dimethylsulfamoyl)ethyl]a-mino}cyclohexyl]-3-({4-[(trifluoromethyl)sulfonyl]phen-yl}amino)-1H-pyrazole-4-carboxamide], the IC50 is 1 nM in test [1] and 13 nM in test [2].

Regarding `N#C[C@H]1C[C@@H](N2C[C@@H]3[C@@H](CO)[C@@H]3C2)CC[C@@H]1n1cc(C(N)=O)c(Nc2ccc(C(F)(F)F)cc2)n1` (single isomer, unassigned) [Example 28-34, 1-{(1S,2S,4S or 1R,2R,4R)-2-cyano-4-[(1R,5S,6S or 1S,5R,6R)-6-(hydroxymethyl)-3-azabicyclo[3.1.0]hex-3-yl]cyclohexyl}-3-{[4-(trifluoromethyl)phenyl]amino}-1H-pyrazole-4-carboxamide], the IC50 in test [1] came out at 0.6 nM; in test [2], 20 nM.

For `CC(=O)c1ccc(Nc2nn([C@H]3CC[C@H](N4CCC4)C[C@@H]3C#N)cc2C(N)=O)cc1` (single isomer, unassigned) [Example 28-84, 3-[(4-acetylphenyl)amino]-1-[(1S,2S,4S or 1R,2R,4R)-4-azetidin-1-yl-2-cyanocyclohexyl]-1H-pyrazole-4-carboxamide], the IC50 was determined as 0.3 nM in test [1] and 9 nM in test [2].

Turning to `CC1(N[C@H]2CCC(n3cc(C(N)=O)c(Nc4ccccc4)n3)[C@@H](C#N)C2)CC1` (single isomer, unassigned) [Example 28-216, 1-{(1S,2S,4S or 1R,2R,4R)-2-cyano-4-[(1-methylcyclopropyl)amino]cyclo-hexyl}-3-(phenylamino)-1H-pyrazole-4-carboxamide], the results for the IC50 in test [1] and in test [2] were 2 nM and 24 nM, respectively.

For the compound `N#C[C@H]1CCCC[C@@H]1n1cc(C(N)=O)c(Nc2ccc(S(=O)(=O)NCCN3CCCC3)cc2)n1` (single isomer, unassigned) [Example 17-87, 1-[(1R,2R or 1S,2S)-2-cyanocyclohexyl]-3-({4-[(2-pyrrolidin-1-ylethyl)sulfamoyl]phenyl}amino)-1H-pyrazole-4-carboxamide], the concentration for half-maximal inhibition (IC50) in test [1] was 0.5 nM; in test [2], 2 nM.

Take `N#C[C@H]1C[C@H](O)CC[C@@H]1n1cc(C(N)=O)c(Nc2ccc(OC(F)(F)F)cc2)n1` (single isomer, unassigned) [Example 24, 1-((1S,2S or 1R,2R)-2-cyano-4(R)-hydroxycyclohexyl)-3-((4-(trifluoromethoxy)phenyl)amino)-1H-pyrazole-4-carboxamide]: the concentration for half-maximal inhibition (IC50) in test [1] came to 6 nM; in test [2] it was 61 nM.

As for `N#C[C@H]1CCCC[C@@H]1n1cc(C(N)=O)c(Nc2ccnnc2)n1` (single isomer, unassigned) [Example 17-53, 1-[(1S,2S or 1R,2R)-2-cyanocyclohexyl]-3-(pyridazin-4-ylamino)-1H-pyrazole-4-carboxamide], the IC50 in test [1] is 3 nM; in test [2], 28 nM.

Regarding `COCCN(C)[C@H]1CCC(n2cc(C(N)=O)c(Nc3ccc(Cl)cc3)n2)[C@@H](C#N)C1` (single isomer, unassigned) [Example 28-239, 3-[(4-chlorophenyl)amino]-1-{(1S,2S,4S or 1R,2R,4R)-2-cyano-4-[(2-methoxy-ethyl)(methyl)amino]cyclo-hexyl}-1H-pyrazole-4-carboxamide], the IC50 turned out to be 2 nM in test [1] and 20 nM in test [2].

As to `COc1cccc(N2CCN(S(=O)(=O)c3ccc(Nc4nn([C@H]5CCCC[C@@H]5C#N)cc4C(N)=O)cc3)CC2)c1` (single isomer, unassigned) [Example 17-97, 1-[(1R,2R or 1S,2S)-2-cyanocyclohexyl]-3-[(4-{[4-(3-methoxyphenyl)piperazin-1-yl]sulfonyl}phenyl)amino]-1H-pyrazole-4-carboxamide], the IC50 in test [1] came out at 9 nM; in test [2], 24 nM.

Take `Cn1cc(-c2cncc(Nc3nn(C4CCCC[C@@H]4C#N)cc3C(N)=O)c2)cn1` (single isomer, unassigned) [Example 21-1, 1-[(1S,2S or 1R,2R)-2-Cyanocyclohexyl]-3-{[5-(1-methyl-1H-pyrazol-4-yl)pyridin-3-yl]amino}-1H-pyrazole-4-carboxamide]: the IC50 came to 6 nM in test [1] and 73 nM in test [2].

As for `C[C@H](N[C@@H]1CC[C@H](n2cc(C(N)=O)c(Nc3ccc(Cl)c(F)c3)n2)[C@@H](C#N)C1)C1CC1` (single isomer, unassigned) [Example 28-48, 3-[(4-chloro-3-fluorophenyl)amino]-1-[(1S,2S,4R or 1R,2R,4S)-2-cyano-4-{[(1S or 1R)-1-cyclopropylethyl]amino}cyclo-hexyl]-1H-pyrazole-4-carboxamide], the IC50 in test [1] worked out at 8 nM; in test [2], 215 nM.

On to `N#C[C@H]1C[C@H](N2CCC2)CC[C@@H]1n1cc(C(N)=O)c(Nc2ccc(OC(F)(F)F)cc2)n1` (single isomer, unassigned) [Example 28-70, 1-[(1S,2S,4R or 1R,2R,4S)-4-azetidin-1-yl-2-cyanocyclohexyl]-3-{[4-(trifluoromethoxy)phenyl]amino}-1H-pyrazole-4-carboxamide], for which the half-maximal inhibitory concentration (IC50) turned out to be 2 nM in test [1] and 40 nM in test [2].

For the compound `N#C[C@H]1C[C@@H](C(=O)NC2CC(F)(F)C2)CC[C@@H]1n1cc(C(N)=O)c(Nc2ccc(Cl)cc2)n1` (single isomer, unassigned) [Example 35-20, 3-[(4-chlorophenyl)amino]-1-{(1S,2S,4S or 1R,2R,4R)-2-cyano-4-[(3,3-difluorocyclobutyl)carbamoyl]cyclohexyl}-1H-pyrazole-4-carboxamide], the IC50 in test [1] was determined as 21 nM; in test [2], 172 nM.

With `COCCN(C)[C@H]1CC[C@H](n2cc(C(N)=O)c(Nc3ccc(S(=O)(=O)C(F)(F)F)cc3)n2)[C@@H](C#N)C1` (single isomer, unassigned) [Example 28-149, 1-{(1S,2S,4S or 1R,2R,4R)-2-cyano-4-[(2-methoxy-ethyl)(methyl)amino]cyclohexyl}-3-({4-[(trifluoromethyl)sulfonyl]phen-yl}amino)-1H-pyrazole-4-carboxamide], the IC50 in test [1] turned out to be 0.6 nM; in test [2] it was 17 nM.

As for `CN(C1CCC1)[C@H]1CC[C@@H](n2cc(C(N)=O)c(Nc3ccc(C(F)(F)F)cc3)n2)[C@H](C#N)C1` (single isomer, unassigned) [Example 30-8, l-{(1R,2R,4S or 1S,2S,4R)-2-cyano-4-[cyclo-butyl(methyl)amino]cyclohexyl}-3-{[4-(trifluoro-methyl)phenyl]amino}-1H-pyrazole-4-carboxamide], the IC50 in test [1] was 6 nM; in test [2], 240 nM.

Turning to `CC1(N[C@H]2CCC(n3cc(C(N)=O)c(Nc4ccccc4)n3)[C@@H](C#N)C2)COC1` (single isomer, unassigned) [Example 28-230, 1-{(1S,2S,4S or 1R,2R,4R)-2-cyano-4-[(3-methyloxetan-3-yl)amino]cyclohexyl}-3-(phenylamino)-1H-pyrazole-4-carboxamide], the IC50 in test [1] was 4 nM; in test [2] it was 24 nM.
